Test results published in patent US3957785A, “Bβ-Pyrimidino-aminomethyl-10α-ergoline and 10α-methoxyergoline derivatives” (priority 1971, dated 1976).
Several values for one entry are separate records, joined by “and”; a condition that tells them apart may be missing. Equal values may be shown once. Read-outs that look alike come from different tables or passages of the source.

What was measured:
[1] = test system: lethal effects caused by adrenaline; test: adrenolytic activity in vivo on the rat: reduction of lethal effects caused by adrenaline; conditions: read-out: ID50 (dose reducing by 50% the lethal effects caused by adrenaline)
Description: (§1) The adrenolytic activity of the compounds of the invention was also determined in vivo on the rat in comparison with dihydroergotamine and nicergoline. Table 2 reports the doses in mg/kg (ID50) able to reduce by 50% the lethal effects caused by adrenaline after oral (os) and intravenous (i.v.) administration of these compounds as compared with dihydroergotamine and with nicergoline, i.e., 1,6-dimethyl-8 -(5'-bromonicotinoyloxymethyl)-10 -methoxyergoline (Br. J. Pharmac, 34, 700, 1968).

lethal adrenaline dose = test: percentage of animals protected against lethal adrenaline dose, hours after administration; format: in vivo, rat
Description: as §1
Some of the compounds reported in Table 2 have a long lasting effect of up to 24 hours as shown by the data contained in Table 3.
Percentage of animals protected against lethal adrenaline dose

adrenalin = test: submaximal inhibiting dosage protecting 80% of rats against adrenalin injected 8 hours after administration; format: in vivo; conditions: Rattus norvegicus, po, read-out: ID (submaximal inhibiting dosage which protects 80% of the tested animals)
Description: This greater stability was confirmed by the determination of the submaximal inhibiting dosage which protects 80% of the tested animals (rats) against a single dose of 200 mg/Kg of body weight of adrenalin injected 8 hours after administration of the tested compounds according to the invention.

[2] = acute toxicity LD50 in rats; conditions: rat, in vivo
[3] = test system: isolated guinea pig seminal vescicle; test: inhibition of the spasmogen effect caused by adrenaline on isolated guinea pig seminal vescicle (adrenolytic activity in vitro); set-up: unit: μg/ml; conditions: isolated guinea pig seminal vescicle in physiological solution
Description: The compounds of the present invention have a high and prolonged adrenolytic activity and a low toxicity and are therefore useful in therapy. This adrenolytic activity was tested on several of the present compounds in vitro in comparison with dihydroergotamine on isolated guinea pig seminal vescicle suspended in a physiological solution.
Table 1 reports the values of concentrations, in μg/ml., which are able to produce a 50% inhibition (IC50) of the spasmogen effect caused by adrenaline.

hypertensive rat = test: hypotensive activity on the hypertensive rat; format: in vivo; conditions: po, read-out: Hypotensive Activity, Active Dose (dose causing a pressure drop of about 30-40 mmHg)
Description: The hypotensive activity was tested on the hypertensive rat; the reported data being the dose, expressed in mg/kg per os, which causes a pressure drop of about 30-40 mmHg.

[4] = analgesic activity, writhing test; format: in vivo; conditions: for Analgesic Activity, Writhing, relative to D-propoxyphene: D-propoxyphene assigned the value of 1; for Analgesic Activity, Writhing, relative to morphine: morphine assigned the value of 1
Description: (§2) The analgesic activity was evaluated by means of the hot plate test and the writhing test, the data being given in comparison with morphine and D-propoxyphene.
(§3) In the hot plate and writhing tests, the comparison compounds morphine and D-propoxyphene have been arbitrarily assigned the value of 1. Thus, in the hot plate test, the compound 1,6-dimethyl-8β-(2-pyrimidino-aminomethyl)-10α-ergoline has the same activity as both morphine and D-propoxyphene, while in the writhing test that compound has 1/2 the activity of morphine and 5 times the activity of D-propoxyphene.

[5] = Arcamone et al. Bioch. Pharmac. 21, 2205, 1972; cited from earlier work
[6] = analgesic activity, hot plate test; format: in vivo
Description: as §2, §3

[7] = 0.1 mg/Kg per os, 1 hour after administration
[8] = 0.1 mg/Kg per os, 2 hours after administration
[9] = 0.5 mg/Kg per os, 0.5 hours after administration
[10] = 0.5 mg/Kg per os, 1 hour after administration
[11] = 0.5 mg/Kg per os, 2 hours after administration
[12] = 0.5 mg/Kg per os, 4 hours after administration
[13] = 0.5 mg/Kg per os, 8 hours after administration

| SMILES | ED50 ([1]; po, os) [mg/kg] | ED50 ([1]; iv) [mg/kg] | ED80 (adrenalin; 8 h) [mg/kg] | LD50 ([2]; iv) [mg/kg] | LD50 ([2]; po, os) [mg/kg] | TC50 (concentration producing 50% inhibition (IC50) of the spasmogen effect caused by adrenaline) [3] [μc/ml] | also measured |
| --- | --- | --- | --- | --- | --- | --- | --- |
| Cc1cc(C)nc(NCC2CC3c4cccc5c4c(cn5C)CC3N(C)C2)n1 (stereo not drawn) [1,6-dimethyl-8β(4,6-dimethyl-2-pyrimidino-aminomethyl)-10α -ergoline] | 1.25 | – | – | – | – | – | % survivors (lethal adrenaline dose; 2.5 mg/Kg per os, 1 hour after administration): 80%; % survivors (lethal adrenaline dose; 2.5 mg/Kg per os, 2 hours after administration): 60%; % survivors (lethal adrenaline dose; 2.5 mg/Kg per os, 4 hours after administration): 30%; % survivors (lethal adrenaline dose; 5 mg/Kg per os, 1 hour after administration): 100%; % survivors (lethal adrenaline dose; 5 mg/Kg per os, 2 hours after administration): 80%; % survivors (lethal adrenaline dose; 5 mg/Kg per os, 4 hours after administration): 50%; % survivors (lethal adrenaline dose; 5 mg/Kg per os, 8 hours after administration): 20%; % survivors (lethal adrenaline dose; 10 mg/Kg per os, 1 hour after administration): 100%; % survivors (lethal adrenaline dose; 10 mg/Kg per os, 2 hours after administration): 100%; % survivors (lethal adrenaline dose; 10 mg/Kg per os, 4 hours after administration): 60% |
| CN1CC(CNc2ncc(N)cn2)CC2c3cccc4c3c(cn4C)CC21 (stereo not drawn) [1,6-dimethyl-8β-(5-amino-2-pyrimidino-aminomethyl)-10α-ergoline] | 0.5 | 0.18 | 1 | 18 | 140 | – | – |
| CN1CC(CNc2ncc([N+](=O)[O-])cn2)CC2c3cccc4c3c(cn4C)CC21 (stereo not drawn) [1,6-dimethyl-8β-(5-nitro-2-pyrimidino-aminomethyl)-10α -ergoline] | 0.04 | 0.09 | 0.5 | – | – | 0.007 | % survivors (lethal adrenaline dose; 0.1 mg/Kg per os, 0.5 hours after administration): 50%; % survivors (lethal adrenaline dose; [7]): 90%; % survivors (lethal adrenaline dose; [8]): 60%; % survivors (lethal adrenaline dose; 0.1 mg/Kg per os, 4 hours after administration): 70%; % survivors (lethal adrenaline dose; 0.1 mg/Kg per os, 8 hours after administration): 60%; % survivors (lethal adrenaline dose; 0.1 mg/Kg per os, 16 hours after administration): 10%; % survivors (lethal adrenaline dose; [9]): 100%; % survivors (lethal adrenaline dose; [10]): 100%; % survivors (lethal adrenaline dose; [11]): 100%; % survivors (lethal adrenaline dose; [12]): 90%; % survivors (lethal adrenaline dose; [13]): 80%; % survivors (lethal adrenaline dose; 0.5 mg/Kg per os, 16 hours after administration): 30%; % survivors (lethal adrenaline dose; 0.5 mg/Kg per os, 24 hours after administration): 20% |
| COC12CC(CNc3ncc(C#N)cn3)CN(C)C1Cc1cn(C)c3cccc2c13 (stereo not drawn) [1,6-dimethyl-8β -(5-cyano-2-pyrimidino-aminomethyl)-10α -methoxyergoline] | 0.2 | 0.015 | 0.5 | 38 | 160 | 0.0001 | ED (30-40 mmHg pressure drop) (hypertensive rat; Rattus norvegicus): 1 to 2.5 mg/kg; Analgesic Activity, Writhing, relative to D-propoxyphene [4]: 1; Analgesic Activity, Writhing, relative to morphine [4]: 0.2; % survivors (lethal adrenaline dose; 0.2 mg/Kg per os, 2 hours after administration): 100%; % survivors (lethal adrenaline dose; 0.2 mg/Kg per os, 4 hours after administration): 90%; % survivors (lethal adrenaline dose; [10]): 80%; % survivors (lethal adrenaline dose; [11]): 90%; % survivors (lethal adrenaline dose; [12]): 80%; % survivors (lethal adrenaline dose; [13]): 80% |
| CO[C@]12C[C@@H](COC(=O)c3cncc(Br)c3)CN(C)[C@@H]1Cc1cn(C)c3cccc2c13 [nicergoline, 1,6-dimethyl-8β-(5'-bromonicotinoyloxymethyl) 10α-methoxyergoline, reference compound] | 7 | 0.024 | – | – | – | – | ED80 (adrenalin; peros in rats after 8 hours, single dose of 200 mg/Kg adrenalin): > 20 mg/kg; metabolism in the presence of blood in vitro [5]: rapidly metabolized |
| CN1C[C@H](C(=O)N[C@]2(C)O[C@@]3(O)[C@@H]4CCCN4C(=O)[C@H](Cc4ccccc4)N3C2=O)C[C@@H]2c3cccc4[nH]cc(c34)C[C@H]21 [dihydroergotamine, reference compound] | 15 | 0.08 | > 20 | – | – | 0.015 | – |
| CN1CC(CNc2ncc(C#N)cn2)CC2c3cccc4c3c(cn4C)CC21 (stereo not drawn) [1,6-dimethyl-8β-(5-cyano-2-pyrimidino-aminomethyl)-10α -ergoline] | 0.05 | 0.05 | – | 25 | 35 | 0.005 | ED (30-40 mmHg pressure drop) (hypertensive rat; Rattus norvegicus): 2.5 to 5 mg/kg |
| COC12CC(CNc3ncccn3)CN(C)C1Cc1cn(C)c3cccc2c13 (stereo not drawn) [1,6-dimethyl-8β -(2-pyrimidino-aminomethyl)-10α -methoxyergoline] | 1 | 0.2 | – | 25 | 250 | 0.005 | – |
| COC12CC(CNc3ncc(C)cn3)CN(C)C1Cc1cn(C)c3cccc2c13 (stereo not drawn) [1,6-dimethyl-8β-(5-methyl-2-pyrimidino-aminomethyl)-10α -methoxyergoline] | 0.1 | 0.1 | – | 18 | – | 0.001 | – |
| Cc1cnc(NCC2CC3c4cccc5c4c(cn5C)CC3N(C)C2)nc1 (stereo not drawn) [1,6-dimethyl-8β-(5-methyl-2-pyrimidino-aminomethyl)-10 α-ergoline] | 0.1 | 0.15 | – | 35 | 140 | – | ED (30-40 mmHg pressure drop) (hypertensive rat; hypertensive rat, per os): 5 to 10 mg/kg; Analgesic Activity, Writhing, relative to D-propoxyphene [4]: 5; Analgesic Activity, Writhing, relative to morphine [4]: 0.5; Analgesic Activity, Hot plate, relative to D-propoxyphene ([6]; D-propoxyphene assigned the value of 1): 5; Analgesic Activity, Hot plate, relative to morphine ([6]; morphine assigned the value of 1): 1 |
| COC12CC(CNc3ncc([N+](=O)[O-])cn3)CN(C)C1Cc1cn(C)c3cccc2c13 (stereo not drawn) [1,6-dimethyl-8β-(5-nitro-2-pyrimidino-aminomethyl)-10α -methoxyergoline] | < 0.1 | 0.2 | – | 28 | 200 | 0.001 | ED (30-40 mmHg pressure drop) (hypertensive rat; Rattus norvegicus): 1 to 2.5 mg/kg; % survivors (lethal adrenaline dose; [7]): 70%; % survivors (lethal adrenaline dose; [8]): 80%; % survivors (lethal adrenaline dose; [9]): 100%; % survivors (lethal adrenaline dose; [11]): 100%; % survivors (lethal adrenaline dose; [12]): 90%; % survivors (lethal adrenaline dose; [13]): 40% |
| COC12CC(CNc3ncc(Br)cn3)CN(C)C1Cc1cn(C)c3cccc2c13 (stereo not drawn) [1,6-dimethyl-8β -(5-bromo-2-pyrimidino-aminomethyl)-10α -methoxyergoline] | 0.32 | 0.08 | – | 50 | 230 | 0.005 | – |
| CN1CC(CNc2ncc(Cl)cn2)CC2c3cccc4c3c(cn4C)CC21 (stereo not drawn) [1,6-dimethyl-8β-(5-chloro-2-pyrimidino-aminomethyl)-10α -ergoline] | 0.14 | – | 1 | – | – | – | – |
| CN1CC(CNc2ncccn2)CC2c3cccc4c3c(cn4C)CC21 (stereo not drawn) [1,6-dimethyl-8β-(2-pyrimidino-aminomethyl)-10α -ergoline] | – | – | – | – | – | – | ED (30-40 mmHg pressure drop) (hypertensive rat; hypertensive rat, per os): 5 to 10 mg/kg; Analgesic Activity, Writhing, relative to D-propoxyphene [4]: 5; Analgesic Activity, Writhing, relative to morphine [4]: 0.5 and 1/2 |
